Measurements: patent publication US6420570B1, “Psoralen compounds” (priority 1993, dated 2002)
Structures can show the parent of a compound that is named as a salt.

Assays:
[1] = system: Salmonella tester strains; assay: Ames assay, dark mutagenicity, overall over tester strains
Protocol: (§1) In this example the compounds of the present invention are tested for their dark mutagenicity using an Ames assay. The procedures used for the Salmonella mutagenicity test as described in detail by Maron and Ames were followed exactly. Maron, D. M. and B. N. Ames, Mutation Research 113:173 (1983). A brief description for each procedure is given here. The tester strains TA97a, TA98, TA100, TA102, TA1537 and TA1538 were obtained from Dr. Ames. TA97a, TA98, TA1537 and TA1538 are frameshift tester strains. TA100 and TA102 are base-substitution tester strains. Upon receipt each strain was cultured under a variety of conditions to confirm the genotypes specific to the strains.
(§2) The first tests done with the strains were to determine the range of spontaneous reversion for each of the strains. With each mutagenicity experiment the spontaneous reversion of the tester strains to histidine independence was measured and expressed as the number of spontaneous revertants per plate. This served as the background controls.
(§3) For all experiments, the pre-incubation procedure was used. In this procedure one vial of each tester strain was thawed and 20 μL of this culture was added to 6 mL of Oxoid Nutrient Broth #2. This solution was allowed to shake for 10 hours at 37° C. In the pre-incubation procedure, 0.1 mL of this overnight culture was added to each of the required number of sterile test tubes. To half of the tubes 0.5 mL of a 10% S-9 solution containing Aroclor 1254 induced rat liver extract (Molecular Toxicology Inc., Annapolis, MD), and MgCl2, KCl, glucose-6-phosphate, NADP, and sodium phosphate buffer (Sigma, St. Louis. Mo.) were added. To the other half of the tubes 0.5 mL of 0.2M sodium phospate buffer, pH 7.4, was used in place of the S-9 mixture (the -S9 samples) Finally 0.1 mL of the test solution containing either 0.0.1, 0.5, 1, 5, 10, 50, 100, 250, or 500 μg/mL of the test compound was added. The 0.7 mL mixture pre-incubated while shaking for 20 minutes at 37° C. After shaking, 2 mL of molten top agar supplemented with histidine and biotin were added to the 0.7 mL mixture and immediately poured onto a minimal glucose agar plate (volume of base agar was 20 ml.). The top agar was allowed 30 minutes to solidify and then the plates were inverted and incubated for 44 hours at 37° C. After incubation the number of revertant colonies on each plate were counted. […] (“n” represents the number of replicates performed for each data point.)
(§4) Maron and Ames (1983) describe the conflicting views with regard to the statistical treatment of data generated from the test.

TA1537 = assay: Ames assay, dark mutagenicity, strain TA1537
Protocol: as §1, §2, §3, §4

TA1538 = assay: Ames assay, dark mutagenicity, strain TA1538
Protocol: as §1, §2, §3, §4

[2] = system: Duck Hepatitis B Virus (DHBV); assay: Inactivation of Duck Hepatitis B Virus in platelet concentrate, PCR amplification read-out; settings: 5 J/CM^2 UVA
Protocol: This example describes the protocol for inactivation of another virus, Duck Hepatitis B Virus (DHBV), using compounds of the present invention. DHBV in duck yolk was added to platelet concentrate (PC) to a final concentration of 2×10^7 particles per mL and mixed by gentle rocking for ≧15 min. […] Samples, including controls without added psoralen, were irradiated with 5 J/CM^2 UVA, with mixing at 1 J/cm^2 increments. After irradiation, leukocytes and platelets were separated from virus by centrifugation. […] Samples were extracted with phenolchloroform and chloroform, followed by ethanol precipitation. […] PCR amplicons were generated using primers pairs DCD03/DCD05 (127 bp), DCD03/DCD06 (327 bp) and DCD03/DCD07 (1072 bp). PCR was performed in a standard PCR buffer containing 0.2 mM each deoxyribonucleoside 5′-triphosphates (dATP, dGTP, dCTP, and dTTP), 0.5 […], and 0.5 units Taq polymerase per […]. 30 cycles of amplification were performed with the following thermal profile: 95° C. 30 sec, 60° C. 30 sec, 72° C. 1 min. The amplification was followed by a 7 min incubation at 72° C. to yield full length products. [[…]-^32P] dCTP was added at an amount of […] in order to detect and quantify the resulting products. Products were separated by electrophoresis on denaturing polyacrylamide slab gels and counted. The absence of signal in a given reaction was taken to indicate effective inactivation of DHBV.

cell-free virus (HIV) = format: cell-based; settings: Table 8, 1 minute irradiation, HIV starting titer approximately 5 logs
Protocol: Pathogen inactivation efficiency of several compounds of the present invention was evaluated by examining the ability of the compounds to inactivate cell-free virus (HIV). Inactivation of cell-free HIV was performed as follows.
As in the R17 assay, small aliquots of the compounds listed in TABLES 8 and 9, below, at the concentrations listed in the table, were added to stock HIV-1 to a total of 0.5 mL. The stock HIV (10^5-10^7 plaque forming units/mL) was in DMEM/15% FBS. […] Controls included HIV-1 stock only, HIV-1 plus UVA only, and HIV-1 plus the highest concentration of each psoralen tested, with no UVA. Post irradiation, all samples were stores frozen at −70° C. until assayed for infectivity by a microtiter plaque assay. Aliquots for measurement of residual HIV infectivity in the samples treated with a compound of the present invention were withdrawn and cultured.
Residual HIV infectivity was assayed using an MT-2 infectivity assay. […] The assay medium was 85% DMEM (with a high glucose concentration) containing 100 μg of streptomycin, 100 U of penicillin, 50 μg of gentamicin, and 1 μg of amphotericin B per mL, 15% FBS and 2 μg of Polybrene (Sigma Chemical Co., St. Louis, Mo.) per mL. Test and control samples from the inactivation procedure were diluted in 50% assay medium and 50% normal human pooled plasma. The samples were serially diluted directly in 96-well plates (Corning Glass Works, corning, N.Y.). The plates were mixed on an oscillatory shaker for 30 seconds and incubated at 37° C. in a 5% CO2 atmosphere for 1 to 18 hours. […] After an additional 1 hour of incubation at 37° C. in 5% CO2, 0.075 mL of assay medium containing 1.6% SeaPlaque agarose (FMC Bioproducts, Rockland, me.) and prewarmed to 38.5° C. was added to each well. The plates were kept at 37° C. for a few minutes until several plates had accumulated and then centrifuged in plate carriers at 600×g for 20 minutes in a centrifuge precooled to 10° C. In the centrifuge, cell monolayers formed prior to gelling of the agarose layer. The plates were incubated for 5 days at 37° C. in 5% CO2 and stained by the addition of 0.05 mL of 50 μg/mL propidium iodide (Sigma Chemical Co.) in phosphate-buffered saline (pH 7.4) to each well. After 24 to 48 hours, the red fluorescence-stained microplaques were visualized by placing the plates on an 8,000 μW/cm^2 304 nm UV light box (Fotodyne, Inc., New Berlin, Wis.). The plaques were counted at a magnification of ×20 to ×25 through a stereomicroscope. “n” represents the number of runs for which the data point is an average.

R17 = R17 bacteriophage inactivation screen, varying compound concentration; format: cell-based
Protocol: The assay used to predict pathogen inactivation efficiency and to determine nucleic acid binding of the photoreactive binding compounds of the present invention was that in which a bacteriophage, R17, in solution with the desired substrate was irradiated. The ability of the phage to subsequently infect bacteria and inhibit their growth was measured. The bacteriophage was selected for its relatively accessible nucleic acid such that the culture growth inhibition would accurately reflect nucleic acid damage by the test compounds. The bacteriophage assay for nucleic acid binding to test compounds offers a safe and inexpensive procedure to identify compounds likely to display efficient pathogen inactivation. […] An aliquot (0.5 mL) was transferred to a 1.5 mL, snap-top polyethylene tube. An aliquot (0.004-0.040 mL) of the test compound stock solution prepared in water, ethanol or dimethylsulfoxide at 0.80-8.0 mM was added to the tube. Compounds were tested at concentrations between 4 μM and 320 μM. (AMT is commercially available from HRI, Inc., Concord, Calif.; 8-MOP is commercially available from Sigma, St. Louis, Mo.). The tubes were placed in a light device as described in EXAMPLE 1 and irradiated for between 1 and 10 minutes. […] To make the dilutions, a 0.100 mL aliquot of the irradiated solution of phage and test compound was added to the first dilution tube of 0.4 mL of media then 0.020 mL of this solution was added to the second tube of 0.5 mL medium (1:25). The second solution was then diluted serially (1:25) into the remaining tubes. […] After the top agar hardened, the plates were incubated at 37° C. overnight. The plaque forming units were then counted the following morning and the titer of the phage remaining after phototreatment was calculated based on the dilution factors. The following controls were run: the “phage only” in which phage was not treated with test compound and not irradiated (listed as “starting titer” in the tables below); the “UV only” in which the phage was irradiated in the absence of test compound; and the “dark” control in which the phage/test compound solution was not irradiated before it was diluted and plated.

DNA = settings: photoactivated binding; NCI Monograph 66:21 (1984); cited from earlier work
TA102 = assay: Ames assay, dark mutagenicity, strain TA102
Protocol: as §1, §2
For all experiments, the pre-incubation procedure was used. In this procedure one vial of each tester strain was thawed and 20 μL of this culture was added to 6 mL of Oxoid Nutrient Broth #2. This solution was allowed to shake for 10 hours at 37° C. […] After incubation the number of revertant colonies on each plate were counted. […]

[3] = Table 6, 16 uM, 1 minute irradiation = 1.2 J/cm^2, starting titer approx. 7.1 logs
[4] = Table 6, 32 uM, 1 minute irradiation = 1.2 J/cm^2, starting titer approx. 7.1 logs

Structure (SMILES): Cc1oc2c(C)c3oc(=O)cc(C)c3cc2c1CNCCN (as salt: hydrochloride) [Compound 1, 4′-(4-amino-2-aza)butyl-4,5′,8-trimethylpsoralen dihydrochloride]
- melting point: 320 to 322 °C (dec.)

Structure (SMILES): Cc1oc2c(C)c3oc(=O)cc(C)c3cc2c1CNCCCN (as salt: hydrochloride) [Compound 5, 4′-(5-amino-2-aza)pentyl-4,5′,8-trimethylpsoralen dihydrochloride]
- melting point: 288 °C (dec.)

Structure (SMILES): Cc1oc2c(C)c3oc(=O)cc(C)c3cc2c1CN [AMT, 4′-Aminomethyl-4,5′,8-trimethylpsoralen, reference compound]
- base-substitution mutagenicity ([1]; base-substitution tester strains TA100 and TA102): no significant base-substitution mutations
- concentration at which mutagenicity was displayed ([1]; comparison with Compound 6): 5 μg/plate
- dose at which frameshift mutagenicity was shown (TA1537; TA1537): 5 μg/plate
- revertant colonies per plate (TA1537; TA1537 −S9, 100 μg/plate): 2058
- dose at which frameshift mutagenicity was shown (TA1538; TA1538): 1 μg/plate
- revertant colonies per plate (TA1538; TA1538 +S9, 0.5 μg/plate): 13
- revertant colonies per plate (TA1538; TA1538 +S9, 1 μg/plate): 37
- revertant colonies per plate (TA1538; TA1538 +S9, 5 μg/plate): 177
- revertant colonies per plate (TA1538; TA1538 +S9, 10 μg/plate): 255
- revertant colonies per plate (TA1538; TA1538 −S9, 0.5 μg/plate): 4
- revertant colonies per plate (TA1538; TA1538 −S9, 1 μg/plate): 4
- revertant colonies per plate (TA1538; TA1538 −S9, 5 μg/plate): 13
- PCR amplification of the 1072 bp amplicon ([2]; platelet concentrate): a signal could be detected
- PCR amplification of the 1072 bp amplicon ([2]; 70 and 100 mM levels, platelet concentrate): inhibited PCR amplification
- HIV Log Kill 16 μM (cell-free virus (HIV); 16 μM): 1.4 log
- R17 Log Kill 8 uM (R17; Table 5, 8 uM, 1 minute irradiation, starting titer approx. 7.2 logs): 2.7 log
- R17 Log Kill 16 uM (R17; Table 5, 16 uM, 1 minute irradiation, starting titer approx. 7.2 logs): 4.6 log
- R17 Log Kill 32 uM (R17; Table 5, 32 uM, 1 minute irradiation, starting titer approx. 7.2 logs): >6.2 log
- R17 log kill 16 uM (R17; [3]): 4.5 log
- R17 log kill 32 uM (R17; [4]): 4.8 log
- R17 log kill 16 uM (R17; Table 7, 16 uM, 1 minute irradiation, starting titer approx. 7.1 logs): >6 log
- R17 log kill 32 uM (R17; Table 7, 32 uM, 1 minute irradiation, starting titer approx. 7.1 logs): >6 log
- DNA base pairs per adduct (up to 1 AMT adduct per) (DNA): 3.5 DNA base pairs

Structure (SMILES): Cc1oc2c(C)c3oc(=O)cc(C)c3cc2c1COCCCN [Compound 4, 4′-(5-amino-2-oxa)pentyl-4,5′,8-trimethylpsoralen]
- mutagenicity as defined by the Ames test ([1]; two-fold or greater increase in revertants above background and dose dependent response): no mutagenicity
- HIV Log Kill 32 μM (cell-free virus (HIV); 32 μM): 2.2 log
- HIV Log Kill 64 μM (cell-free virus (HIV); 64 μM): >3.6 log
- R17 log kill 16 uM (R17; [3]): 2.3 log
- R17 log kill 32 uM (R17; [4]): 4.3 log
- R17 log kill 64 uM (R17; Table 6, 64 uM, 1 minute irradiation = 1.2 J/cm^2, starting titer approx. 7.1 logs): >6.1 log

Structure (SMILES): COc1c2occc2cc2ccc(=O)oc12 [Compound 8-MOP, 8-Methoxypsoralen]
- dose at which the only mutagenic response (weak base-substitution mutagen) was detected (TA102; TA102): 500 μg/plate

Structure (SMILES): Cc1oc2c(C)c3oc(=O)cc(C)c3cc2c1COCCN [Compound S-59]
- PCR of the smaller amplicons compared with AMT ([2]; 127 bp and 327 bp amplicons, same concentrations): inhibited PCR of the smaller amplicons better than did AMT
- PCR of the 1072 bp amplicon ([2]; all concentrations (35, 70, and 100 mM), platelet concentrate): complete inhibition of PCR

Structure (SMILES): OO [hydrogen peroxide]
- revertant colonies per plate, positive control (TA102; Salmonella typhimurium, 44 h, 100 μg/plt, pH 7.4): 660
